Measured values taken from patent publication US20070117182A1, “Nucleic acids conferring transcriptional responsiveness on the RANKL gene promoter and uses thereof” (Wisconsin Alumni Research Foundation, priority 2005, published 2007).

Key:
[1] = tested on: D5 fragment in MC-3T3-E1; assay: pRL-D5/TK-luc reporter in MC-3T3-E1 cells; type: cell-based; settings: osteoblast mouse cell line MC-3T3-E1, which does not produce RANKL
[2] = tested on: osteopontin (OPN); assay: RT-PCR of osteopontin control gene in treated ST2 cells; type: cell-based, mouse; settings: up to 24 hours
Description: (§1) FIG. 2. Induction of RANKL in ST2 cells by hormones and cytokines. ST2 cells were treated with the agents indicated for periods up to 24 hours. Total RNA was isolated and subjected to RT-PCR using a primer set to mouse RANKL and beta-actin. Positive vitamin D target control genes include Cyp24 and osteopontin (OPN).
(§2) The inventors first established a model in which RANKL is both induced in response to 1,25(OH)2D3, PTH (forskolin) and oncostatin M (OSM), and is capable of supporting osteoclast formation when co-cultured with bone marrow monocyte- or spleen cell-derived osteoclast precursors. While a number of cell types express RANKL and induce osteoclastogenesis, the historical literature strongly supports mouse ST2 cells in this capacity, prompting the inventors to focus on this stromal/preosteoblastic line for initial studies. […] Each of these components is known to both induce RANKL expression and promote osteoclast formation as well. […] Indeed, GC effects are widely observed. […] The ability of GCs to enhance osteoclast formation in coculture assays in the presence of 1,25(OH)2D3, however, is likely due also to its coordinate ability to suppress OPG.

[3] = tested on: D5 region of the RANKL gene (RL-CCL); assay: pTK-RL(D5) luciferase reporter in ST2 cells; type: cell-based, mouse; settings: 24 hours, agent alone
Description: FIG. 6. Transcriptional activity of the D5 regions of the RANKL gene in the context of the TK promoter. Sequence surrounding the D5 region (1072 bp) was cloned into the pTK-luciferase vector and termed pTK-RL(D5). […] Cells were harvested after 24 hours and luciferase activity assessed. B) ST2 cells were transfected as in A above but without the VDR expression vector and evaluated as in A. C) COS-7 cells were transfected and evaluated as in A above. Luciferase was normalized using beta-gal activity. Data represent the mean of triplicate determinations (SEM). The pTK-luc control vector was unresponsive to any of the inducers (see FIG. 9). *, p<0.05 vs no treatment control.
FIG. 11. […] A) Coordinates of the RL-D5 and the RL-D5b regions in the mouse RANKL upstream region. ST2 cells were transfected with either B) pTK-luc or pTK-mRL-D5 or C) pTK-luc and pTK-mRL-D5b and then treated with the indicated inducers. Cells were harvested after 24 hours and evaluated for luciferase activity. Luciferase was normalized using β-gal activity. Data represent the mean of triplicate determinations (SEM). *, p<0.05 vs no treatment control. **, p<0.05 vs no treatment and 1,25(OH)2D3 treated controls.
The activity of an enhancer must be evaluated in the context of its local environment, preferentially in the context of both other enhancers and its native promoter. In the case of the RANKL gene, however, this is clearly not possible due to the numbers and the distant locations of the potential regulatory regions. To tackle this problem, the inventors isolated approximately 800 to 1100 bp fragments of each region (D1 to D5) as identified through the ChIP/Chip analysis, cloned each into a luciferase expression vector under the control of a viral thymidine kinase (TK) minimal promoter, and explored the 1,25(OH)2D3- and GC-inducible activity of each following transfection into ST2 cells. […] Nevertheless, positive results provide added support for the potential regulatory capabilities of an individual DNA fragment even when examined in isolation. […] This induction was magnified by the addition of a VDR expression vector (FIG. 6a), but was also evident in the absence of such addition (FIG. 6b). […] To ensure that the viral TK promoter background was not contributing to our evaluation, the inventors cloned the mouse RANKL promoter (−100 to +65) into pGL3, inserted RL D5 and evaluated its activity in ST2 cells as well.
Based upon the above data, the inventors explored the possibility that similar to 1,25(OH)2D3, forskolin, PGE2 and OSM might be capable of activating transcription via the D5 fragment of the RANKL gene. […] Cells were harvested 24 hours later and evaluated for luciferase activity as in the previous experiments. […]

[4] = tested on: Cyp24; assay: RT-PCR of Cyp24 control gene in treated ST2 cells; type: cell-based, mouse; settings: up to 24 hours
Description: as §1, §2

[5] = tested on: RANKL; assay: RT-PCR of RANKL transcripts in treated ST2 cells; type: cell-based, mouse; settings: treated up to 24 hours, agent alone, vs beta-actin controls
Description: as §1, §2

C=C1/C(=C\C=C2/CCC[C@]3(C)[C@@H]([C@H](C)CCCC(C)(C)O)CC[C@@H]23)C[C@@H](O)C[C@@H]1O [1,25(OH)2D3]
stimulation via the D5 fragment in MC-3T3-E1 [1]: failed to stimulate | osteopontin (OPN) induction [2]: induced in a time-dependent manner | luciferase activity via D5 (RL-CCL), TK promoter [3]: typical and rather striking dose response | Cyp24 induction [4]: induced in a time-dependent manner | RANKL transcripts [5]: substantial time-dependent increase
